Here are results for 23 compounds from patent US10968236B2, “TYK2 inhibitors and uses thereof” (Nimbus Lakshmi, Inc., priority 2015, dated 2021).

pKi: −log10 of the molar value. Where only a bound is given, the exact number is not on record here.

Assay [1] deals with TYK2 (Homo sapiens (Human), UniProt P29597). The experiment in a line: Tyk2 activity inhibition assay (radioactive kinase / Caliper assay). The assay is classed as biochemical. On the procedure:
(§1) Peptide substrate, [KKSRGDYMTMQIG], (20 μM) is prepared in reaction buffer (20 mM Hepes pH 7.5, 10 mM MgCl2, 1 mM EGTA, 0.02% Brij35, 0.02 mg/mL BSA, 0.1 mM […], 2 mM DTT, 1% DMSO. TYK2 (Invitrogen) kinase is added, followed by compounds in DMSO. 33PATP is added to initiate the reaction in ATP at 10 μM. Kinase reaction is incubated for 120 min at room temp and reactions are spotted onto P81 ion exchange paper (Whatman #3698-915), and then washed extensively in 0.75% phosphoric acid, prior to reading the radioactivity counts. For JAK2 (Invitrogen) kinase assay the peptide substrate poly[Glu:Tyr] (4:1), 0.2 mg/ml is used, in the reaction carried out the same as for TYK2.
(§2) The caliper machine employs an off chip mobility shift assay to detect phosphorylated peptide substrates from kinase assays, using microfluidics technology. The assays are carried out at ATP concentration equivalent to the ATP Km, and at 1 mM ATP. Compounds are serially diluted in DMSO then further diluted in assay buffer (25 mM HEPES, pH 7.5, 0.01% Brij-35, 0.01% Triton, 0.5 mM EGTA). 5 ul of diluted compound was added into wells first, then 10 ul of enzyme mix was added into wells, followed by 10 uL of substrate mix (peptide and ATP in 10 mM MgCl2) to start reaction. Reaction was incubated at 28° C. for 25 min and then added 25 ul stop buffer (100 mM HEPES, 0.015% Brij-35, 50 mM EDTA), followed by reading with Caliper. JAK2 at 1 nM final concentration and TYK2 at 9.75 nM are from Carna, and substrates used are ATP at 20 and 16 uM, respectively. JAK2 assay uses peptide 22 and TYK2 uses peptide 30 (Caliper), each at 3 uM.
(§3) The compound numbers correspond to the compound numbers in Table 1. Compounds having an activity designated as “A” provided an Ki≤0.01 μM; compounds having an activity designated as “B” provided an Ki of 0.01-0.1 μM; compounds having an activity designated as “C” provided an Ki of 0.1-1.0 μM; and compounds having an activity designated as “D” provided an Ki≥1.0 μM.

In assay [2] the target is JAK2 (Homo sapiens (Human), UniProt O60674). The experiment in a line: JAK2 activity inhibition assay (radioactive kinase / Caliper assay). The assay is classed as biochemical. On the procedure:
as §1, §2, §3

In general, pKi refers to the Ki on a negative log10 scale, so that one unit is a factor of ten.

Chain of TYK2 (P29597 whole entry): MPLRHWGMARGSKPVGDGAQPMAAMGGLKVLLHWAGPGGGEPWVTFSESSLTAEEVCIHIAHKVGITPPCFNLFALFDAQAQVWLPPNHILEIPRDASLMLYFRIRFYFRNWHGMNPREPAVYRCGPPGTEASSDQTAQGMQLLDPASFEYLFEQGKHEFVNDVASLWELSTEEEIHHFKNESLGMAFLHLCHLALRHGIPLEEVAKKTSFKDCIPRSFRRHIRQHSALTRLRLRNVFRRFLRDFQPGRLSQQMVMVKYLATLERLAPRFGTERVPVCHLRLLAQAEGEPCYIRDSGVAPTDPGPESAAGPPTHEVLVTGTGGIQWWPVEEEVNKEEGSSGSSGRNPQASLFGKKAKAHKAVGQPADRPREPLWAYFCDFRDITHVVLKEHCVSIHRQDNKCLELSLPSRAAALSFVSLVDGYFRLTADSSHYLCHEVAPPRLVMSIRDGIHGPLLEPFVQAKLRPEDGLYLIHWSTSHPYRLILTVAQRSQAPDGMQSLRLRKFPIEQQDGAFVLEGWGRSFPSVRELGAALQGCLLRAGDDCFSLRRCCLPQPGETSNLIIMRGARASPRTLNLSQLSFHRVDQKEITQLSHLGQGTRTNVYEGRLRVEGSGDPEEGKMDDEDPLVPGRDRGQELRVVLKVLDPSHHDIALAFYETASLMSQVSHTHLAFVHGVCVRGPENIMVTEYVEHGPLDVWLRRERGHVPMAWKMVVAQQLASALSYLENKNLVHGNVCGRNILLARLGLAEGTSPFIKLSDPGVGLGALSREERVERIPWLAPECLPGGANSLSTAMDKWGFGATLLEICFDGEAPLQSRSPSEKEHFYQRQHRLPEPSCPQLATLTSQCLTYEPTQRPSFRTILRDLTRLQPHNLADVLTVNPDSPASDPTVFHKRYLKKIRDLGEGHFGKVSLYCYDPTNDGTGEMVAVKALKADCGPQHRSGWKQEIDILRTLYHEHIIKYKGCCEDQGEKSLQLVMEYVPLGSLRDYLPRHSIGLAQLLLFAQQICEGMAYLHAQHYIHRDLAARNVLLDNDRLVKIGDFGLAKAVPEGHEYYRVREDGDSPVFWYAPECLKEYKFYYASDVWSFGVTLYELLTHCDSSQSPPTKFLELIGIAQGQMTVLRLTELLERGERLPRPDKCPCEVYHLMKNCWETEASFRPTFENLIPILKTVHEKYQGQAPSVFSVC
Chain of JAK2 (O60674 whole entry): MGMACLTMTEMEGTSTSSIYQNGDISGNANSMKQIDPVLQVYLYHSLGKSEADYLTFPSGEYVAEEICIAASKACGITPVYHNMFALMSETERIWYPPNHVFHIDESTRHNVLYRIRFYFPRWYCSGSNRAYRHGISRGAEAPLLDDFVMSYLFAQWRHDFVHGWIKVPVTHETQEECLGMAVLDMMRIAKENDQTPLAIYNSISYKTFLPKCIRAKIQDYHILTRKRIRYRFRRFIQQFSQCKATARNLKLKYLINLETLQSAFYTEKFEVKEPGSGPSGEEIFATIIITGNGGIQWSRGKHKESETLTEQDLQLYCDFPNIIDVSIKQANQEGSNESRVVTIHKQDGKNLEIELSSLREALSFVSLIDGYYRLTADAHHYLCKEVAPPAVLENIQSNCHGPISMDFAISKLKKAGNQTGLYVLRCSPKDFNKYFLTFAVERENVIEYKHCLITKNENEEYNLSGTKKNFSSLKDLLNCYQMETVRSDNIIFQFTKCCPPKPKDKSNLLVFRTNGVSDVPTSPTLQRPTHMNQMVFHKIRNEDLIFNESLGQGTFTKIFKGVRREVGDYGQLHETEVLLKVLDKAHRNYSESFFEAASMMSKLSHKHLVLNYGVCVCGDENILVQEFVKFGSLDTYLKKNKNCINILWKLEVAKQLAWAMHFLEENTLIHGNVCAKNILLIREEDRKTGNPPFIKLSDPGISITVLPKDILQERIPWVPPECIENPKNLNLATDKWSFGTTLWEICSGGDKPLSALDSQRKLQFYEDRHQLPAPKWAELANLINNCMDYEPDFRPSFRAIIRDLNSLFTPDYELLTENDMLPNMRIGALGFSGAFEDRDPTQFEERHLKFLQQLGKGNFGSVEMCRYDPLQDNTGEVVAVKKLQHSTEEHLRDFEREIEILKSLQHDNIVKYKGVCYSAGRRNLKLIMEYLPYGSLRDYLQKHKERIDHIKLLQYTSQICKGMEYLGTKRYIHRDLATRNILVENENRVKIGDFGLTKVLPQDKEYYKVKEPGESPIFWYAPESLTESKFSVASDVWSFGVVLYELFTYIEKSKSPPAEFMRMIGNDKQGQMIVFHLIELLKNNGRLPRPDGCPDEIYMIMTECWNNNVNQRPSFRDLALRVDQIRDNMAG

As for `CC1(C)COc2cc(Nc3nc(-c4c(F)cccc4F)nc4c3C(=O)NC4)ccc21` [Compound I-23, 2-(2,6-difluorophenyl)-4-((3,3-dimethyl-2,3-dihydrobenzofuran-6-yl)amino)-6,7-dihydro-5H-pyrrolo[3,4-d]pyrimidin-5-one], the figures for the pKi in assay [1] and in assay [2] were no less than 8.00 and 6.00 to 7.00, respectively.

Regarding `O=C1NCc2nc(-c3c(F)cccc3F)cc(Nc3ccc(C(=O)N4C[C@H]5COC[C@H]5C4)cc3)c21` [Compound I-63, 2-(2,6-difluorophenyl)-4-((4-((3aR,6aS)-hexahydro-1H-furo[3,4-c]pyrrole-5-carbonyl)phenyl)amino)-6,7-dihydro-5H-pyrrolo[3,4-b]pyridin-5-one], the pKi in assay [1] was no less than 8.00; in assay [2], 7.00 to 8.00.

For the compound `O=C1NCc2nc(-c3c(F)cccc3F)cc(Nc3ccc(C(=O)N4CCOC5(CC5)C4)cc3)c21` [Compound I-50, 4-((4-(4-oxa-7-azaspiro[2.5]octane-7-carbonyl)phenyl)amino)-2-(2,6-difluorophenyl)-6,7-dihydro-5H-pyrrolo[3,4-b]pyridin-5-one], the pKi was no less than 8.00 in assay [1] and 7.00 to 8.00 in assay [2].

`COc1ccc(CNc2nc(-c3c(F)cccc3F)nc3c2C(=O)NC3)cc1` [Compound I-13, 2-(2,6-difluorophenyl)-4-((4-methoxybenzyl)-amino)-6,7-dihydro-5H-pyrrolo[3,4-d]pyrimidin-5-one]: the values for the pKi in assay [1] and in assay [2] were 7.00 to 8.00 and 6.00 to 7.00, respectively.

For `O=C1NCc2nc(-c3c(F)cccc3F)cc(Nc3ccc(N4CCC5(CC4)COC5)cn3)c21` [Compound I-24, 4-((5-(2-oxa-7-azaspiro[3.5]nonan-7-yl)pyridin-2-yl)amino)-2-(2,6-difluorophenyl)-6,7-dihydro-5H-pyrrolo[3,4-b]pyridin-5-one], the pKi in assay [1] and in assay [2] was no less than 8.00 throughout.

On to `CCNC(=O)C(C)(O)c1ccc(Nc2nc(-c3c(F)cccc3F)nc3c2C(=O)NC3)cc1` (stereo not shown) [Compound I-14, 2-(4-((2-(2,6-difluorophenyl)-5-oxo-6,7-dihydro-5H-pyrrolo[3,4-d]pyrimidin-4-yl)amino)phenyl)-N-ethyl-2-hydroxypropanamide], for which the pKi is no less than 8.00 in assay [1] and 6.00 to 7.00 in assay [2].

Consider `O=C1NCc2nc(-c3c(F)cccc3F)cc(Nc3ccc(C(=O)N4CCC5(CC4)CC5)cc3)c21` [Compound I-57, 4-((4-(6-azaspiro[2.5]octane-6-carbonyl)phenyl)amino)-2-(2,6-difluorophenyl)-6,7-dihydro-5H-pyrrolo[3,4-b]pyridin-5-one], for which the pKi in assay [1] was no less than 8.00; in assay [2] it was 7.00 to 8.00.

On to `O=C1NCc2nc(-c3c(F)cccc3F)cc(Nc3ccc(C(=O)N4CCC5(CCCCO5)CC4)cc3)c21` [Compound I-54, 4-((4-(1-oxa-9-azaspiro[5.5]undecane-9-carbonyl)phenyl)amino)-2-(2,6-difluorophenyl)-6,7-dihydro-5H-pyrrolo[3,4-b]pyridin-5-one], for which the pKi in assay [1] was no less than 8.00; in assay [2] it was 7.00 to 8.00.

Turning to `O=C1NCc2nc(-c3c(F)cccc3F)nc(Nc3ccc(C(=O)N4CC5CCC(C4)O5)cc3)c21` [Compound I-5, 4-((4-(8-oxa-3-azabicyclo[3.2.1]octane-3-carbonyl)phenyl)-amino)-2-(2,6-difluorophenyl)-6,7-dihydro-5H-pyrrolo[3,4-d]pyrimidin-5-one], the results for the pKi in assay [1] and in assay [2] were no less than 8.00 and 6.00 to 7.00, respectively.

As to `Nc1ccc2ccn(-c3cc(-c4c(F)cccc4F)nc4c3C(=O)NC4)c2n1` [Compound I-19, 4-(6-amino-1H-pyrrolo[2,3-b]pyridin-1-yl)-2-(2,6-difluorophenyl)-6,7-dihydro-5H-pyrrolo[3,4-b]pyridin-5-one], the pKi in assay [1] is 7.00 to 8.00; in assay [2], no more than 6.00.

On to `N#Cc1cccc(F)c1-c1cc(Nc2ccc(N3C[C@H]4COC[C@H]4C3)cn2)c2c(n1)CNC2=O` [Compound I-76, 3-fluoro-2-(5-oxo-4-((5-((3aR,6aS)-tetrahydro-1H-furo[3,4-c]pyrrol-5(3H)-yl)pyridin-2-yl)amino)-6,7-dihydro-5H-pyrrolo[3,4-b]pyridin-2-yl)benzonitrile], for which the values for the pKi in assay [1] and in assay [2] were no less than 8.00 and 7.00 to 8.00, respectively.

For `O=C1NCc2nc(-c3c(F)cccc3F)cc(Nc3ccc(C(=O)N4CCOCC45CC5)cc3)c21` [Compound I-51, 4-((4-(7-oxa-4-azaspiro[2.5]octane-4-carbonyl)phenyl)amino)-2-(2,6-difluorophenyl)-6,7-dihydro-5H-pyrrolo[3,4-b]pyridin-5-one], the pKi in assay [1] and in assay [2] was no less than 8.00 each time.

Take `O=C1NCc2nc(-c3c(F)cccc3F)nc(Nc3ccc(OC(CO)CO)cc3)c21` [Compound I-12, 2-(2,6-difluorophenyl)-4-((4-((1,3-dihydroxypropan-2-yl)oxy)phenyl)amino)-6,7-dihydro-5H-pyrrolo[3,4-d]pyrimidin-5-one]: the pKi is no less than 8.00 in assay [1] and 6.00 to 7.00 in assay [2].

`C[C@](N)(C(=O)O)c1ccc(Nc2nc(-c3c(F)cccc3F)nc3c2C(=O)NC3)cc1` [Compound I-46, (R)-2-amino-2-(4-((2-(2,6-difluorophenyl)-5-oxo-6,7-dihydro-5H-pyrrolo[3,4-d]pyrimidin-4-yl)amino)phenyl)propanoic acid hydro-chloride]: the pKi in assay [1] was 7.00 to 8.00; in assay [2] it was 6.00 to 7.00.

As for `CC(O)(C(=O)O)c1ccc(Nc2nc(-c3c(F)cccc3F)nc3c2C(=O)NC3)cc1` (stereo not shown) [Compound I-6, 2-(4-((2-(2,6-difluorophenyl)-5-oxo-6,7-dihydro-5H-pyrrolo-[3,4-d]pyrimidin-4-yl)amino)phenyl)-2-hydroxypropanoic acid], the pKi is no less than 8.00 in assay [1] and 6.00 to 7.00 in assay [2].

Turning to `CC1(C)COc2nc(Nc3cc(-c4c(F)cccc4C#N)nc4c3C(=O)NC4)ccc21` [Compound I-85, 2-(4-((3,3-dimethyl-2,3-dihydrofuro[2,3-b]pyridin-6-yl)amino)-5-oxo-6,7-dihydro-5H-pyrrolo[3,4-b]pyridin-2-yl)-3-fluorobenzonitrile], the pKi in assay [1] and in assay [2] was no more than 6.00 each time.

Turning to `CC1(C)Cc2ccc(Nc3nc(-c4c(F)cccc4F)nc4c3C(=O)NC4)cc2N1` [Compound I-3, 2-(2,6-difluorophenyl)-4-((2,2-dimethylindolin-6-yl)amino)-6,7-dihydro-5H-pyrrolo[3,4-d]pyrimidin-5-one], the pKi in assay [1] was no less than 8.00; in assay [2], 6.00 to 7.00.

On to `C[C@@](O)(C(=O)O)c1ccc(Nc2nc(-c3c(F)cccc3F)nc3c2C(=O)NC3)cc1` [Compound I-7, (S)-2-(4-((2-(2,6-difluorophenyl)-5-oxo-6,7-dihydro-5H-pyrrolo[3,4-d]pyrimidin-4-yl)amino)phenyl)-2-hydroxypropanoic acid], for which the pKi in assay [1] was no less than 8.00; in assay [2] it was 6.00 to 7.00.

Regarding `O=C1NCc2nc(-c3c(F)cccc3F)cc(Nc3ccc4c(c3)OC3(CC3)C4=O)c21` [Compound I-77, 2-(2,6-difluorophenyl)-4-((3-oxo-3H-spiro[benzofuran-2,1′-cyclopropan]-6-yl)amino)-6,7-dihydro-5H-pyrrolo[3,4-b]pyridin-5-one], the pKi is no less than 8.00 in assay [1] and 7.00 to 8.00 in assay [2].

For the compound `O=C1NCc2nc(-n3c(F)cccc3=O)cc(Nc3ccc(N4CCOCC4)cn3)c21` [Compound I-56, 2-(6-fluoro-2-oxopyridin-1(2H)-yl)-4-((5-morpholinopyridin-2-yl)amino)-6,7-dihydro-5H-pyrrolo[3,4-b]pyridin-5-one], the pKi in assay [1] is 7.00 to 8.00; in assay [2] it was 6.00 to 7.00.

In the case of `CC1(C)Cc2ccc(Nc3cc(-c4c(F)cccc4F)nc4c3C(=O)NC4)cc2O1` [Compound I-71, 2-(2,6-difluorophenyl)-4-((2,2-dimethyl-2,3-dihydrobenzofuran-6-yl)amino)-6,7-dihydro-5H-pyrrolo[3,4-b]pyridin-5-one], the pKi in assay [1] was 7.00 to 8.00; in assay [2] it was 6.00 to 7.00.

Turning to `O=C1NCc2nc(-c3c(F)cccc3F)cc(Nc3ccc4cc[nH]c4n3)c21` [Compound I-21, 4-((1H-pyrrolo[2,3-b]pyridin-6-yl)amino)-2-(2,6-difluoro-phenyl)-6,7-dihydro-5H-pyrrolo[3,4-b]pyridin-5-one], the pKi was no less than 8.00 in assay [1] and 7.00 to 8.00 in assay [2].

On to `N#Cc1cccc(F)c1-c1cc(Nc2ccc(N3CC4(CC4)C(O)C4(CC4)C3)cn2)c2c(n1)CNC2=O` [Compound I-87, 3-fluoro-2-(4-((5-(4-hydroxy-9-azadispiro[2.1.25.33]decan-9-yl)pyridin-2-yl)amino)-5-oxo-6,7-dihydro-5H-pyrrolo [3,4-b]pyridin-2-yl)benzonitrile], for which the pKi in assay [1] and in assay [2] was no less than 8.00 throughout.
